From patent US20250082653A1, “THERAPEUTIC PRODUCT IN THE FORM OF A DENTAL GEL” (CB21 PHARMA, S.R.O., priority 2021, published 2025)
In brackets after ≈: the same amount, converted by molar mass.

Columns and labels:
[1] = system: human gingival fibroblasts (HGF); test: MTT cytotoxicity test in human gingival fibroblasts; format: cell-based; details: CBD 0.25 and 0.5 μmol/l; 24 h incubation
Procedure: In an in vitro study of the effect of cannabidiol (CBD), human gingival fibroblasts (HGF) isolated from gingiva taken from volunteers at the Department of Oral, Maxillofacial and Facial Surgery of the University Hospital and Medical Faculty of Palacký University Olomouc approved by the Ethics Committee of the University Hospital and Medical Faculty of Palacký University Olomouc (2019) were used. In the first phase of the experiment, a safe CBD concentration was determined based on the results of MTT, which is cytotoxicity test based on the reduction of 3-(4,5-dimethylthiazol-2-yl)-2,5-diphenyltetrazolium bromide (MTT) to the corresponding formazane. The test was performed according to M. D. Maines, L. G. Costa, D. J. Reed, et al. Current protocols in toxicology. New York: John Wiley & Sons. (1998).
Cells seeded in a 96-well plate at a count of 3×10^4 cells/ml and 100 μl/well, which were […], 100 μl MTT was added (0.5 mg/ml in serum-free culture medium), the mixture was incubated for 2 h. After the incubation period and aspiration of the MTT mixture, 100 μl DMSO (dimethyl sulfoxide) with NH3 (1%, v/v) was added. Absorbance was measured at 540 nm.

IL-6 = IL-6 production (ELISA) in HGF after P. gingivalis LPS inflammation induction; format: cell-based, human; details: CBD 0.25 and 0.5 μmol/l, 6 and 24 h
Procedure: (§1) According to the values obtained from the MTT test, two subtoxic concentrations of CBD (0.25 and 0.5 μmol/l) were selected and used to determine its anti-inflammatory effect. Inflammation to HGF was induced by P. gingivalis lipopolysaccharide (LPS) according to How K. Y., Song K. P., Chan K. G., Porphyromonas gingivalis: An Overview of Periodontopathic Pathogen below the Gum Line. Front Microbiol 2016; 7:53. HGFs were seeded in 6-well plates and allowed to grow to confluence. The cells were washed with 1 ml of PBS, and then LPS (1 μg/ml, 2 ml/well) in serum-free culture medium was added, and incubated for 24 hours. A portion of the cells was left without the application of LPS (i.e., without induced inflammation). At the end of the incubation period, CBD in serum-free culture medium at concentrations of 0.25 and 0.5 μmol/l was added (2 ml/well) for 6 and 24 hours, both for cells cultured with LPS and for cells without LPS application. At selected time intervals, the culture medium was collected and stored at −80° C. for further analysis. The levels of proinflammatory interleukins IL-6, IL-8 (Human ELISA Development Kit, Cat. No. 900-K16 and 900-K18, PeproTech, Baria, Czech Republic) and matrix metalloproteinase (MMP-2) (Duo Set ELISA Development System, Cat. No. DY902, R&D, Bio-Techne, UK) were determined by ELISA. […]

IL-8 = IL-8 production (ELISA) in HGF after P. gingivalis LPS inflammation induction; format: cell-based, human; details: CBD 0.25 and 0.5 μmol/l, 6 and 24 h
Procedure: as §1

[2] = system: matrix metalloproteinase (MMP-2); test: MMP-2 production (ELISA) in HGF after P. gingivalis LPS inflammation induction; format: cell-based, human; details: CBD 0.25 and 0.5 μmol/l, 6 and 24 h
Procedure: as §1

[3] = system: Porphyromonas gingivalis CCM 3985; test: MIC by microdilution method (CLSI M11), anaerobic; format: cell-based; details: P. gingivalis, 60 h anaerobic incubation, three independent experiments
Procedure: (§2) Strains Streptococcus mutans CCM 7409 and Porphyromonas gingivalis CCM 3985 were selected for testing. Both were obtained from Czech Collection of Microorganisms (Brno). BHI+kh medium (Brain-heart infusion (Oxoid, UK) enriched with vitamin K (0.001 mg/ml) and hemin ([…])) was used to cultivate S. mutans, and for P. gingivalis medium WCHA—Wilkins-Chalgren agar (HiMedia, India), with 7% sheep erythrocytes and vitamin K (0.001 mg/ml). (Blaskovich M A T, Kavanagh A M, Elliott A G, Zhang B, Ramu S, Amado M et al. The antimicrobial potential of cannabidiol. Commun Biol 2021; 4(1):1-18).
(§3) The susceptibility of selected microbes to tested substance was verified by the microdilution method according to Clinical and Laboratory Standards Institute (M Methods for Antimicrobial Susceptibility Testing of Anaerobic Bacteria. 9th ed. CLSI standard M11. Wayne, PA: Clinical and Laboratory Standards Institute; 2018).
(§4) Basic working solutions were prepared from the tested substance by dilution in DMSO. […] The required concentrations of the tested substance were then prepared by serial dilution, dilution factor 1:2. 135 μl of each dilution was pipetted into the wells of a 96-well round-bottomed hardened polystyrene microtiter plate (Gamma České Budějovice, a.s.).
(§5) From fresh cultures of the test strains on Wilkins-Chalgren agar (WCHA; HiMedia, India), with 7% sheep erythrocytes and vitamin K, suspensions were prepared in BHI+kh at an optical density corresponding to 0.5 degrees McFarland turbidity scale (after subtraction of optical density of the medium). The suspensions were then diluted in the ratio 1:15 (final inoculum concentration 5×10^6 CFU/ml). Individual wells with 135 μl of the CBD solutions and control wells were inoculated with 15 μl of the prepared inoculum.
(§6) The inoculated microtiter plates were incubated in an Anaerobic Work Station (Ruskinn Technology, UK) with an anaerobic atmosphere (80% N2, 10% CO2 and 10% H2) at 37° C. The incubation was performed for 60 hours for P. gingivalis and 24 hours for S. mutans.
(§7) The sterility of the medium was checked by transferring 150 μl BHI+kh to three wells of a microtiter plate. […]
(§8) After evaluating the MIC, the contents of the wells with the highest concentration of CBD and with visible microbial growth were inoculated onto WCHA. […] After 48 hours (S. mutans) or 14 days (P. gingivalis) of incubation in an anaerobic atmosphere, the purity of the grown microbial culture was evaluated. […]
(§9) The growth of the microbe, which manifested itself by turbidity of the medium or as a sediment at the bottom of the well of the microtiter plate, was monitored in the individual wells of the microtiter plate. […] The minimum inhibitory concentration (MIC) was determined as the lowest concentration of the substance at which no microbial growth was observed. […]

[4] = system: Streptococcus mutans CCM 7409; test: MIC by microdilution method (CLSI M11), anaerobic; format: cell-based; details: S. mutans, 24 h anaerobic incubation, three independent experiments
Procedure: as §2, §3, §4, §5, §6, §7, §8, §9

gingival fibroblasts = test: Permeation of CBD into gingival fibroblasts (UHPLC/MS); format: in vitro ADME, human; details: 0.5 μM CBD
Procedure: Gingival fibroblasts (obtained from three healthy patients) were seeded in a 6-well plate (well area 9.6 cm^2) and allowed to grow until the next day (confluence). CBD was applied to the cells at a concentration of 0.5 μM for 6 and 24 hours. At the end of the incubation period, 250 μl of medium was mixed with 250 μl of methanol with 1% (w/w) HCl and the cells were washed 2× with PBS (1 ml), scraped from 4 wells into PBS (phosphate buffer, 1 ml), centrifuged for 5 minutes at 3000 rpm. After centrifugation, PBS was removed and 0.5 ml of methanol with 1% (w/w) HCl was added and the cells were sonicated (cycle 0.5, amplitude 50, 10 times). The samples were then centrifuged for 2 minutes at 8000 rpm and the supernatant was pipetted into a clean tube and subjected to UHPLC/MS analysis.
UHPLC/MS analyses were performed on an ACQUITY I Class liquid chromatograph (Waters, Milford, MA, USA). It is a modular system consisting of a chromatographic pump (Binary Solvent Manager), autosampler (Sample Manager) and column thermostat (Column Manager). Kinetex Polar C18 (100×2.1 mm i.d., 2.6 μm; Phenomenex, CA, USA) was used as the analytical column. The system was operated with a gradient elution of the mobile phase (MFA 0.1% formic acid in water, MFB 0.1% formic acid in acetonitrile) at a flow rate of 0.6 ml/min and a temperature of 25° C. The gradient elution had the following parameters: 0 to 11 min 50 to 70% MFB, 11 to 12.5 min 70 to 100% MFB, 12.5 to 13 min 100 to 50% MFB, 13 to 16 min 50% MFB. The injection volume was 2 μl.
A high resolution Synapt G2-S mass spectrometer (Waters Corp., Manchester, UK) connected to the UPLC system via an electrospray ionization (ESI) interface was used for the metabolic study. The ion source was operated in positive ionization mode with a capillary voltage of 3.0 kV and a sample cone of 30 V. The source temperature and desolvation gas temperature were set at 120° C. and 320° C. The desolvation gas flow rate was 900 l/h. […]

With `C=C(C)[C@@H]1CCC(C)=C[C@H]1c1c(O)cc(CCCCC)cc1O` [CBD, cannabidiol] the “Cytotoxicity by MTT test” value [1] was “subtoxic”, the “levels of IL-6” value (IL-6) was “decrease” and the “levels of IL-8” value (IL-8) was “decrease”. The MMP-2 levels [2] was “no significant changes”, the MIC range [3] was 1 to 2 µg/mL and the MIC ([3]; Porphyromonas gingivalis, CCM3985, read-out: MIC median) was 1.5 µg/mL (≈ 4.77 µM). For the same molecule, the MIC range [4] was 16 µg/mL (≈ 50.9 µM), the MIC ([4]; Streptococcus mutans, CCM7409, read-out: MIC median) was 16 µg/mL (≈ 50.9 µM) and the “absorption of CBD by gingival fibroblasts” value (gingival fibroblasts; 6 and 24 h, cell lysates) was “absorbed relatively quickly”. The “CBD in the culture medium” value (gingival fibroblasts; 6 and 24 h incubation, UHPLC/MS) was “not detected” and the “metabolites of CBD” value (gingival fibroblasts; after 24 h of cultivation) was “no metabolites of CBD were identified”.
